AC50 data for 77 compounds are collected here from PubChem BioAssay AID977622 (Broad Institute, 2014).

The experiment deals with E. coli WT ribosome GFP fluorescence, mixed culture, 24 h. Put plainly: growth inhibition of wild-type GFP E. coli, dose response, h38 mutant RFP, cherry-pick (AID 977622).
The mark [1] stands for this setting: E. coli mixed culture, 24 h, measured here: total growth OD600.

Records with an inconclusive call do not appear. Active and inactive are the calls of the source.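 Rule for the calls: active = Green signal of the normal strain falls at least twice as much as red signal of the resistant mutant, with overall culture growth loss under a set limit; inconclusive = no clear call, values can overlap the other calls; inactive = the rest.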 Where only a bound is given, the exact number is not on record here.

As to `Cc1cccc(CSCC(=O)N2CCN(S(=O)(=O)c3ccccc3C#N)CC2)c1`, the AC50 – broadly, the concentration giving half of the maximal activity seen – is > 100 µM (inactive).

For the compound `CC(OC(=O)CCc1nc2ccccc2c(=O)[nH]1)C(=O)c1ccc(Br)cc1` (configuration not stated), the AC50 was > 100 µM (inactive).

For `c1ccc(-c2nc3c4ccccc4ccn3c2CN2CCOCC2)cc1`, the AC50 was > 100 µM (inactive).

Consider `CCC(C)c1ccccc1NC(=O)c1cccc(-n2cnnn2)c1` (configuration not stated), for which the AC50 under setting [1] was above 100 µM.

Take `O=C(Cc1cccc(NC(=O)C2CCN(C(=O)C3CCCCC3)CC2)c1)Nc1cccc(C(=O)N2CCCC2)c1`: the AC50 was > 100 µM (inactive). This compound registered a concentration at half-maximal activity (AC50) under setting [1] above 100 µM.

Turning to `Cc1cc(C(=O)OCC(=O)Nc2cccc(S(N)(=O)=O)c2)c2ccccc2n1`, the AC50 was > 100 µM (inactive). The compound further registered an AC50 under setting [1] above 100 µM.

In the case of `NS(=O)(=O)c1cccc(NC(=O)c2cccc(-c3ccc(O)cc3)c2)c1`, the AC50 is > 100 µM (inactive). Under setting [1], the AC50 amounted to 50.2 µM.

Under setting [1], `Cc1n[nH]c(C)c1S(=O)(=O)N1CCCC(C(=O)Nc2ccc(Br)cc2)C1` (configuration not stated) registered an AC50 above 100 µM.

For `CCOC(=O)c1sc(NC(=O)CN2CCN(c3ccccc3)CC2)nc1C`, the AC50 was > 100 µM (inactive).

In turn, `Cc1ccc(S(=O)(=O)Nc2ccccc2CNc2cccc(C)n2)cc1` showed an AC50 under setting [1] above 100 µM.

As to `CCN(CC)CCN(C(=O)c1ccccc1OC)c1nc2ccc(F)cc2s1`, the AC50 is > 100 µM (inactive). Moreover, under setting [1], the AC50 is above 100 µM.

As for `COc1ccc2oc(C(=O)NCc3ccco3)c(C)c2c1`, the AC50 is > 100 µM (inactive).

As for `O=C(C[n+]1cc(-c2ccc(Cl)c(Cl)c2)n2c1CCC2)OCc1ccccc1`, the AC50 is > 100 µM (inactive).

Take `Cc1ccc(-c2c[n+](CC(=O)OCc3ccccc3)c3n2CCC3)cc1`: the AC50 was > 100 µM (inactive).

As to `O=C(CSCc1c(Cl)cccc1Cl)Nc1cccnc1`, the AC50 was > 100 µM (inactive). In addition, under setting [1], the AC50 was above 100 µM.

On to `CCCCc1ccc(S(=O)(=O)Nc2ccc(C)c(NS(C)(=O)=O)c2)cc1`, for which the AC50 was > 100 µM (inactive). The same compound gave an AC50 under setting [1] of 51.4 µM.

Consider `Cc1ccc(CNS(=O)(=O)c2ccc3c(c2)NC(=O)CS3)cc1`, for which the AC50 is > 100 µM (inactive). The compound also registered an AC50 under setting [1] of 41 µM.

Take `COc1ccc(OCC(=O)N2c3ccccc3CC2C)c([N+](=O)[O-])c1` (configuration not stated): the AC50 was > 100 µM (inactive). Moreover, the AC50 under setting [1] is above 100 µM.

In the case of `CCOC(=O)C1CCCN(C(=O)c2csc(-c3ccc4c(c3)CCO4)n2)C1` (configuration not stated), the AC50 was > 100 µM (inactive).

In the case of `Cc1noc(NS(=O)(=O)c2ccc(NC(=O)c3cc(-c4ccccc4Cl)nc4ccccc34)cc2)c1C`, the AC50 was > 100 µM (inactive).

With `COC(=O)c1c(NC(=O)CCC(=O)O)sc(Cc2ccccc2)c1C`, the AC50 was > 100 µM (inactive). Also, under setting [1], the AC50 was 18.8 µM.

Consider `N#Cc1cccc(-c2ccc3c(c2)[C@H]2[C@H](CCN2C(=O)c2ccccc2F)[C@H](CO)N3)c1`, for which the AC50 was > 100 µM (inactive).

As to `CC(CCC(=O)O)C1CC[C@@]2(C)C3C(=O)CC4C(C)(C)C(O)CC[C@]4(C)C3C(=O)C[C@]12C` (some centres not stated), the AC50 was > 100 µM (inactive). The compound further had an AC50 under setting [1] above 100 µM.

Under setting [1], `O=C(Nc1ccc(C(=O)Nc2ccccc2Cl)cc1)c1cccnc1` yielded an AC50 above 100 µM.

Turning to `CCNc1nc(N)c(C(=O)C23CC4CC(CC(C4)C2)C3)s1`, the AC50 under setting [1] is above 100 µM.

On to `Cc1ccc(C(=O)c2coc3cc([N+](=O)[O-])c(O)c([N+](=O)[O-])c23)cc1`, for which the AC50 is > 100 µM (inactive). Further, the AC50 under setting [1] worked out at 21.5 µM.

With `O=C(Cc1ccc(Br)cc1)Nc1cccc(-c2cn3c(n2)SCC3)c1`, the AC50 was > 100 µM (inactive). The AC50 under setting [1] was above 100 µM.

For `Cc1c(Cc2ccc3c(c2)OCO3)sc(NC(=O)C2CC2)c1C(N)=O`, the AC50 is > 100 µM (inactive). Under setting [1], this compound showed an AC50 of 34.7 µM.

Consider `COc1ccc(NC(=O)Nc2cccc3c2O[C@H](CN(C)S(=O)(=O)c2ccc(Cl)cc2)[C@H](C)CN([C@H](C)CO)C3=O)cc1`, for which the AC50 is > 100 µM (inactive). The same compound showed an AC50 under setting [1] of 44.2 µM.

The compound `COc1ccc(CN2CCC3CC2c2cc(Cl)ccc23)cc1` (configuration not stated) yielded an AC50 under setting [1] above 100 µM.

Take `O=C(CCCOc1ccc(Cl)cc1Cl)Nc1ccccc1C(=O)O`: the AC50 is > 100 µM (inactive).

Take `COc1ccccc1C(=O)Nc1ccc2c(c1)nc1n2CCN(C2CCCCC2)C1`: the AC50 is > 100 µM (inactive).

Regarding `O=C(Nc1cccc(O)c1)c1cc(-c2ccccc2Cl)on1`, the AC50 is > 100 µM (inactive).

On to `CN1OC[C@@H]2CN(C(=O)c3ccco3)[C@H](c3ccc(-c4ccc(C#N)cc4)cc3)C[C@@H]21`, for which the AC50 under setting [1] is above 100 µM.

Regarding `O=c1[nH]c(C2CCCN(S(=O)(=O)c3ccccc3Cl)C2)nc2c1nnn2Cc1ccc2c(c1)OCCO2` (configuration not stated), the AC50 was > 100 µM (inactive).

`NC(=O)c1ccsc1NC(=O)COC(=O)Cc1ccc(F)cc1` came in with an AC50 under setting [1] above 100 µM.

Turning to `Nc1nn(-c2ccccc2)c2ccc([N+](=O)[O-])cc12`, the AC50 was > 100 µM (inactive).

In the case of `CC(=O)N1CCOc2ccc(S(=O)(=O)N(C)c3ccc(C)cc3)cc21`, the AC50 was > 100 µM (inactive).

As for `COC(=O)c1ccc(OS(=O)(=O)c2ccc(NC(C)=O)cc2)cc1`, the AC50 was > 100 µM (inactive).

As for `O=C(c1cc2cc(F)ccc2[nH]1)N1CCN(Cc2ccc3c(c2)OCO3)CC1`, the AC50 is > 100 µM (inactive). Under setting [1], the AC50 came out at 20.8 µM.

Consider `Cc1cccc(NC(=O)c2c(C)nn(-c3ccccc3)c2Cl)c1`, for which the AC50 was > 100 µM (inactive).

For `CC(=O)OC(COc1cccc(C)c1)Cn1cnc2ccccc21` (configuration not stated), the AC50 was > 100 µM (inactive). Further, the AC50 under setting [1] was found to be 50.7 µM.

`CCCC[n+]1ccn(-c2nc3ccccc3nc2[N-]S(=O)(=O)c2cccs2)c1`: the AC50 was > 100 µM (inactive). Further, the AC50 under setting [1] was above 100 µM.

`CCCN1C(=O)C(O)(c2c(C)[nH]c3ccccc23)c2ccccc21` (configuration not stated) registered an AC50 under setting [1] above 100 µM.

On to `CCCc1nc2cc(C)c(Br)c(C)n2c1CC1CCCCC1`, for which the AC50 was > 100 µM (inactive).

With `Cc1cc2nc(SCC(=O)O)nc(C)c2cc1C`, the AC50 under setting [1] is above 100 µM.

In the case of `O=C(NCCc1ccc(O)cc1)c1[nH]c(C(F)(F)F)nc1-c1ccccc1`, the AC50 was > 100 µM (inactive). In addition, under setting [1], the AC50 is above 100 µM.

Regarding `O=C(Cn1c(CO)nc2ccccc21)NCCc1ccc(F)cc1`, the AC50 was > 100 µM (inactive).

Consider `CCc1nnc(NS(=O)(=O)c2ccc(NC(=O)c3cccc(Cl)c3)cc2)s1`, for which the AC50 is > 100 µM (inactive).

In the case of `Cc1ccc(Nc2cc(C(=O)NCCCN3CCOCC3)c3ccccc3n2)cc1C`, the AC50 was > 100 µM (inactive). The AC50 under setting [1] is above 100 µM.

For `O=C(NCCCn1ccnc1)c1sc2cc([N+](=O)[O-])ccc2c1Cl`, the AC50 under setting [1] was above 100 µM.

Under setting [1], `Cc1ccc2nc(-c3ccc(Cl)cc3)c(Cc3ccccc3C(F)(F)F)n2c1` gave an AC50 above 100 µM.

`CCN(CC)CCN(C(=O)c1ccc2c(c1)CCCC2)c1nc2ccc(F)cc2s1`: the AC50 is > 100 µM (inactive). The same compound showed an AC50 under setting [1] of 46.3 µM.

Under setting [1], `Cn1cc(CN2CCCC(C(=O)Nc3cccc(-c4cc5ccccc5[nH]4)c3)C2)cn1` (configuration not stated) showed an AC50 above 100 µM.

`Nc1[nH]c(C(=O)c2ccccc2)c(-c2ccc3c(c2)OCO3)c1C(=O)NCCc1c[nH]c2ccccc12` came in with an AC50 under setting [1] above 100 µM.

Under setting [1], `CNC(=O)c1ccsc1NC(=O)c1ccc(S(=O)(=O)N2CCc3ccccc32)cc1` yielded an AC50 above 100 µM.

With `CCOc1ccc(N(CC(=O)NC(C(C)C)C(C)C)S(=O)(=O)c2ccc(OC)c(OC)c2)cc1`, the AC50 was > 100 µM (inactive). This compound registered an AC50 under setting [1] of 50.9 µM.

On to `CSc1ccc(CN(C)C(=O)C(c2ccccc2)c2ccccc2)cc1`, for which the AC50 under setting [1] is above 100 µM.

Take `CCOC(=O)C(CC)Sc1cc(C)nc2ccc(OC)cc12` (configuration not stated): the AC50 under setting [1] was above 100 µM.

Take `O=C(COC(=O)C1CC2C=CC1C2)Nc1ccc([N+](=O)[O-])cc1` (configuration not stated): the AC50 under setting [1] is above 100 µM.

For the compound `S=C1SCN(Cc2cccnc2)CN1Cc1ccccc1`, the AC50 was > 100 µM (inactive).

In the case of `Cc1ccc(S(=O)(=O)NC(C)C(=O)NCc2ccc(Cl)cc2)cc1` (configuration not stated), under setting [1], the AC50 is above 100 µM.

Consider `Cc1cc(C(N)=O)nn1-c1c(Cl)cc(Cl)cc1Cl`, for which the AC50 under setting [1] is above 100 µM.

Regarding `Clc1ccc(-c2cn(-c3ccccc3)c3[n+]2CCS3)cc1`, the AC50 is > 100 µM (inactive).

Consider `COc1cccc(C(=O)NC2CC3CCCC(C2)N3S(=O)(=O)c2ccccc2)c1` (configuration not stated), for which the AC50 was > 100 µM (inactive). The compound also registered an AC50 under setting [1] of 41.4 µM.

Take `FC(F)(F)c1ccc(Cl)c(-n2c(Cc3cccs3)n[nH]c2=S)c1`: the AC50 is > 100 µM (inactive).

Take `Cc1ccc(-n2cc(CNCCN3CCOC3=O)c(-c3ccc(F)cc3)n2)cc1`: under setting [1], the AC50 is above 100 µM.

`Clc1ccc(-c2nc3ccc(Br)cn3c2Cc2ccsc2)cc1`: the AC50 was > 100 µM (inactive). The compound also had an AC50 under setting [1] of 35 µM.

Turning to `COc1ccc(C)c2sc(N(CCN(C)C)C(=O)c3ccc(S(=O)(=O)N(C)c4ccccc4)cc3)nc12`, the AC50 under setting [1] is above 100 µM.

Turning to `CC(C)N1CC2(CC(c3ccccc3C(F)(F)F)=NO2)CN1C(=O)c1ccco1` (configuration not stated), the AC50 was > 100 µM (inactive). Further, the AC50 under setting [1] was above 100 µM.

`Cc1ccsc1C(=O)N1CCCC(C(=O)c2cc(F)ccc2F)C1` (configuration not stated): the AC50 was > 100 µM (inactive). Under setting [1], this compound gave an AC50 above 100 µM.

Regarding `COc1ccc(C(=O)CSc2nc3ccccc3n2CC(=O)c2ccccc2)cc1`, the AC50 was > 100 µM (inactive).

`COc1cc(C(N)=O)cc(Br)c1OCc1ccccc1`: the AC50 was > 100 µM (inactive).

Regarding `C[C@]12C(=O)N(c3ccc(F)cc3)C(=O)N1[C@@H]1c3ccccc3OC[C@@H]1[C@H]2c1ccccc1`, the AC50 under setting [1] is above 100 µM.

With `COc1ccc(-c2ccccc2)cc1NC(=O)c1ccncc1`, the AC50 is > 100 µM (inactive).

Under setting [1], `Nc1[nH]c(C(=O)c2ccccc2)c(-c2ccc(Cl)cc2)c1C(=O)NCCc1c[nH]c2ccccc12` gave an AC50 above 100 µM.

Regarding `O=S1(=O)N[C@H](Cc2ccccc2)COc2cc(N3CCSCC3)ccc21`, under setting [1], the AC50 was above 100 µM.
